Here are results for ten molecules from patent publication EP3782997A1, “FUSED PYRIMIDINE COMPOUNDS AND PHARMACEUTICAL COMPOSITIONS THEREOF FOR THE TREATMENT OF FIBROTIC DISEASES” (Galapagos N.V., priority 2019, dated 2021).

For one assay, the system named is Sprague-Dawley rats. As to the kind of experiment: Rat pain model (partial sciatic nerve injury, von Frey and plantar tests). The format is in vivo. Particulars: 10 mg/kg p.o. bid. As for the experimental part: The neuropathic pain rat model originally established by Seltzer et al. (Seltzer et al. 1990) is used to evaluate the effect of a test compound against tactile allodynia and contingent thermal hyperalgesia caused by partial sciatic nerve injury (PSNL) induced by sciatic nerve partial ligature.
The test compounds are administered to the treatment groups on a daily basis, starting from post-surgical day 3 (D3), and continued until the end point day on D15.
Gabapentin is used as a positive control. […]
On the test days, pre-dose allodynia was evaluated prior to dosings, and the effects of the administered compounds assessed 2 hours post dosing. […]
In the manual test approach (10 g vF), a pre-calibrated 10 g von Frey hair was used to exert five repeats of filament presentations. […] The results were recorded as percentages of positive reactions within five repeats of filament presentations. […] The actual force application was monitored in real time to ensure its linearity and thus the proper performance of the test in each measurement. The peak force (g), i.e. the lowest force evoking paw withdrawal was recorded, and the absolute paw withdrawal thresholds (PWTs) calculated as medians of triplicate measurements. […]
The contingency of heat hyperalgesia due to PSNL injury was assessed on the test days 2 hours post dosing. […]

For a further assay, the target named is hENPP2 (Homo sapiens, UniProt Q13822). As to the kind of experiment: Human ENPP2 (hENPP2) biochemical assay using LPC as substrate. Particulars: 150 µM LPC (palmitoyl 16:0), 37°C for 30 min. Summed up: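 IC50 came from compound series (top 50 µM, 1/3 steps) incubated 30 min at 37°C with 1 or 3 µg/mL final enzyme and palmitoyl LPC added at 150 µM, pH 8.5 Tris buffer with Ca2+. Choline output measured as quinoneimine dye at 555 nm via coupled oxidase/HRP/TOOS detection.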

The subject of the next assay is C57BL/6 mice. As to the kind of experiment: Bleomycin (BLM) induced pulmonary fibrosis model. It counts as in vivo. Conditions: both doses (10 mg/kg and 30 mg/kg, b.i.d. p.o., Day 7 to Day 21); vs. BLM/vehicle control, *p<0.05, Mann-Whitney. From the text: The murine bleomycin induced pulmonary fibrosis model is a widely used standard animal model of pulmonary fibrosis (Walters & Kleeberger 2001). Bleomycin administration results in oxidative stress and acute inflammation with the subsequent onset of pulmonary fibrosis. Epithelial cell injury with reactive hyperplasia, basement membrane damage, clusters of spindle-shaped mesenchymal cells resembling fibroblastic foci, and interstitial as well as intra-alveolar fibrosis are histological characteristics of the bleomycin model similar to those of IPF.
For the purpose of the induction of pulmonary fibrosis 8 weeks old C57BL/6 mice with an average weight of ∼25 g randomly grouped in experimental groups were used. […]
Body weight and clinical signs were monitored throughout the experiment.
The main read-outs in the model were: • Blood for PK analysis • Body weight • Lung weight • Histopathological examination of lung tissue • Ashcroft score on slides stained for collagen with Crossman's trichrome, as well as evaluation of collagen deposition using digital image analysis (CaloPix software, TRIBVN Healthcare, France) on collagen-1A1 stained slides (immunohistochemistry, IHC) (Ashcroft et al. 1988; Hübner et al. 2008; Matsuse et al. 1999). […]

As usually defined, the IC50 is the concentration that gives 50% inhibition.

Consider `Cc1cc(C)cc(Nc2ncc3c(n2)CN([C@@H]2CCN(C(=O)c4cc5nn[nH]c5cc4F)[C@H](C)C2)C3)c1` [Cpd 115, [(2R,4R)-4-[2-(3,5-dimethylanilino)-5,7-dihydropyrrolo[3,4-d]pyrimidin-6-yl]-2-methyl-1-piperidyl]-(6-fluoro-1H-benzotriazol-5-yl)methanone], for which, in the assay on Sprague-Dawley rats, the allodynia result is recorded as “statistically significant reduction”. The heat hyperalgesia result with Sprague-Dawley rats (plantar test) is given as “statistically significant reduction”. The half-inhibitory concentration (IC50) at hENPP2 was in the range of 0.01 to 100 nM. The Ashcroft score entry in the assay with C57BL/6 mice is on record as “significantly decrease”. As for `Cc1cc(C)cc(Nc2ncc3c(n2)CN([C@@H]2CCN(C(=O)c4cncc(NS(C)(=O)=O)c4)[C@H](C)C2)C3)c1` [compound 211, N-[5-[(2R,4R)-4-[2-(3,5-dimethylanilino)-5,7-dihydropyrrolo[3,4-d]pyrimidin-6-yl]-2-methyl-piperidine-1-carbonyl]-3-pyridyl]methanesulfonamide], the concentration for half-maximal inhibition (IC50) on hENPP2 is > 1000 nM. The same measure, in the same setting: the result for `Cc1cc(C)cc(Nc2ncc3c(n2)CN([C@@H]2CCN(C(=O)c4ccnc(NS(=O)(=O)C(F)(F)F)c4)[C@H](C)C2)C3)c1` [compound 212, N-[4-[(2R,4R)-4-[2-(3,5-dimethylanilino)-5,7-dihydropyrrolo[3,4-d]pyrimidin-6-yl]-2-methyl-piperidine-1-carbonyl]-2-pyridyl]-1,1,1-trifluoro-methanesulfonamide] reads 100 to 500 nM; that for `C[C@@H]1C[C@H](N2Cc3cnc(Nc4cc(F)cc(Cl)c4)nc3C2)CCN1C(=O)c1ccnc(NS(C)(=O)=O)c1` [compound 213, N-[4-[(2R,4R)-4-[2-(3-chloro-5-fluoro-anilino)-5,7-dihydropyrrolo[3,4-d]pyrimidin-6-yl]-2-methyl-piperidine-1-carbonyl]-2-pyridyl]methanesulfonamide], 0.01 to 100 nM.

The molecule `C[C@@H]1C[C@@H](N2Cc3cnc(Nc4cc(F)cc(Cl)c4)nc3C2)CCN1C(=O)c1ccnc(NS(C)(=O)=O)c1` [compound 214, N-[4-[(2R,4S)-4-[2-(3-chloro-5-fluoro-anilino)-5,7-dihydropyrrolo[3,4-d]pyrimidin-6-yl]-2-methyl-piperidine-1-carbonyl]-2-pyridyl]methanesulfonamide] returned an IC50 against hENPP2 of 100 to 500 nM. Take `Cc1cc(Nc2ncc3c(n2)CN([C@@H]2CCN(C(=O)c4ccnc(NS(C)(=O)=O)c4)[C@H](C)C2)C3)ccc1C(F)(F)F` [compound 215, N-[4-[(2R,4R)-2-methyl-4-[2-[3-methyl-4-(trifluoromethyl)anilino]-5,7-dihydropyrrolo[3,4-d]pyrimidin-6-yl]piperidine-1-carbonyl]-2-pyridyl]methanesulfonamide]: at hENPP2, the IC50 was 0.01 to 100 nM.

In the case of `Cc1cc(Nc2ncc3c(n2)CN([C@H]2CCN(C(=O)c4ccnc(NS(C)(=O)=O)c4)[C@H](C)C2)C3)ccc1C(F)(F)F` [compound 216, N-[4-[(2R,4S)-2-methyl-4-[2-[3-methyl-4-(trifluoromethyl)anilino]-5,7-dihydropyrrolo[3,4-d]pyrimidin-6-yl]piperidine-1-carbonyl]-2-pyridyl]methanesulfonamide], the IC50 against hENPP2 was in the range of 0.01 to 100 nM.

Regarding `COc1cc(Nc2ncc3c(n2)CN([C@@H]2CCN(C(=O)c4ccnc(NS(C)(=O)=O)c4)[C@H](C)C2)C3)ccc1Cl` [compound 217, N-[4-[(2R,4R)-4-[2-(4-chloro-3-methoxy-anilino)-5,7-dihydropyrrolo[3,4-d]pyrimidin-6-yl]-2-methyl-piperidine-1-carbonyl]-2-pyridyl]methanesulfonamide], at hENPP2, the IC50 is 0.01 to 100 nM. Same read-out and setting: the result for `Cc1cc(C)cc(Nc2ncc3c(n2)CN([C@@H]2CCN(C(=O)c4cc(NS(C)(=O)=O)ncc4C)[C@H](C)C2)C3)c1` [compound 218, N-[4-[(2R,4R)-4-[2-(3,5-dimethylanilino)-5,7-dihydropyrrolo[3,4-d]pyrimidin-6-yl]-2-methyl-piperidine-1-carbonyl]-5-methyl-2-pyridyl]methanesulfonamide] reads 0.01 to 100 nM; that for `C[C@@H]1C[C@@H](N2Cc3cnc(Nc4cccc(OC5CC5)c4)nc3C2)CCN1C(=O)c1ccnc(NS(C)(=O)=O)c1` [compound 219, N-[4-[(2R,4S)-4-[2-[3-(cyclopropoxy)anilino]-5,7-dihydropyrrolo[3,4-d]pyrimidin-6-yl]-2-methyl-piperidine-1-carbonyl]-2-pyridyl]methanesulfonamide], 100 to 500 nM.
